From patent publication US20120165331A1, “Di/tri-aza-spiro-C9-C11alkanes” (priority 2010, published 2012) come the findings set out here.

For assay [1], the target named is T1, human orexin 1 receptor (Homo sapiens, UniProt O43613).
T1 construct: expressed in transfected cells
T1 sequence (O43613 1-425): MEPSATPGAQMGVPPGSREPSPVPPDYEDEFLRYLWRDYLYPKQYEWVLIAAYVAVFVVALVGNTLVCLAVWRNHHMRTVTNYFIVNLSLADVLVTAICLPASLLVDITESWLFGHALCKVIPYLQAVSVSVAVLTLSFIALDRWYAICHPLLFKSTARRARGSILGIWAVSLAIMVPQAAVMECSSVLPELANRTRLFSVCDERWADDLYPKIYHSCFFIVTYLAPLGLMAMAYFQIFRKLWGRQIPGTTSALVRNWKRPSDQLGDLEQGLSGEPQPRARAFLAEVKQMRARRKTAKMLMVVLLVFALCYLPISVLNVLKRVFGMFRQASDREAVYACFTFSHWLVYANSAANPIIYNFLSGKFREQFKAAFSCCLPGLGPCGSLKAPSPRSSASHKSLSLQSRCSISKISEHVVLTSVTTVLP
Put plainly: Radioligand binding assay ([3H]-SB649868 competition), human orexin 1 receptor. The conditions noted are these: radioligand [3H]-SB649868; read-out: Binding hOx1R Kd. As for the experimental part: Radioligand Binding Assay
For crude cell membrane preparations, cells (CHO, Chinese hamster ovary or HEK, human embryonic kidney) expressing human orexin 1 or human orexin 2 receptors, were washed with HEPES (10 mM, pH 7.5), scraped off the culture plates with the same buffer, and centrifuged at 4° C. for 5 min at 2500×g. The cell pellet was either stored at −80° C. or used directly. Before the experiments, cell membranes were re-suspended in binding assay buffer (10 mM HEPES, 0.5% (w/v) bovine serum albumin, pH 7.5) by homogenisation with a Polytron homogeniser at 50 Hz for 20 s. Cell membranes were also used as made available by commercial providers.
Bound radioactivity was measured, and data were analysed with the program XLFIT or Graphpad Prism. Protein concentration was determined according to the Bradford/BioRad Protein Assay Kit.
In competition experiments, cell homogenates (150 μl) were incubated in assay buffer (10 mM HEPES, pH 7.5, 0.5% (w/v) bovine serum albumin, 5 mM MgCl2, 1 mMCaCl2, and tween 0.05%) for 1 h at room temperature with about 1 nM of the radioligand [^3H]-SB649868, 66 Ci/mmole, 50 μl), and with various concentrations of compounds of the invention (50 μl) in triplicates; non-specific binding was determined in the presence of almorexant (10 μM). Reactions were terminated by vacuum filtration, 3 washes of ice cold wash buffer (Tris-HCl pH 7.4/10 mM, with NaCl 154 mM). Competition data is expressed in Table 1 as Kd [μM].

In assay [2] the target is T2, human orexin 2 receptor (Homo sapiens, UniProt O43614).
T2 construct: expressed in transfected cells
T2 sequence (O43614 1-444): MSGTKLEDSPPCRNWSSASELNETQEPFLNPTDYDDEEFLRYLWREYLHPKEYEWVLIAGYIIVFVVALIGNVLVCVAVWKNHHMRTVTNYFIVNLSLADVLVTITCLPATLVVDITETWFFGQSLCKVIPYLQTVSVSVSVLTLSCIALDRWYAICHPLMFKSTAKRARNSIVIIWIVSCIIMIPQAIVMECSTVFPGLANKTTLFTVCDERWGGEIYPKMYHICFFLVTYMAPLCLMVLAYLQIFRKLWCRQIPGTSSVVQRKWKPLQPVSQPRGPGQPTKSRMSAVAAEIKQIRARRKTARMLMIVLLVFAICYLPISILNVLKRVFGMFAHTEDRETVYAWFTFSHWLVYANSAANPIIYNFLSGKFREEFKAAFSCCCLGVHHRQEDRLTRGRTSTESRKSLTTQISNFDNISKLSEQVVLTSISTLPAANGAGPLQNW
In words: Calcium accumulation in cells (FLIPR), antagonism of orexin A, human orexin 2 receptor. The conditions noted are these: calcium accumulation, antagonism of orexin A, Cheng-Prusoff corrected; read-out: FLIPR hOx2R Ki. Type of assay: cell-based.

Assay [3] addresses T2, human orexin 2 receptor. Put plainly: Radioligand binding assay ([3H]-SB649868 competition), human orexin 2 receptor. The conditions noted are these: radioligand [3H]-SB649868; read-out: Binding hOx2R Kd. Summed up:
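Competition binding against roughly 1 nM [3H]-SB649868, run in triplicate for 1 h at room temperature on CHO or HEK membranes bearing human receptor (10 mM HEPES pH 7.5, 0.5% BSA, 5 mM MgCl2, 1 mM CaCl2, 0.05% tween). Bound radioactivity after vacuum filtration; almorexant 10 μM for non-specific binding; expressed as Kd.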

In assay [4] the target is T1, human orexin 1 receptor. In words: Calcium accumulation in cells (FLIPR), antagonism of orexin A, human orexin 1 receptor. Type of assay: cell-based. Conditions: for Ki: calcium accumulation, antagonism of orexin A, Cheng-Prusoff corrected, read-out: FLIPR hOx1R Ki; for inhibition at 10 µM: measured at a concentration of 10 μM of compound, read-out: FLIPR hOx1R % inhibition.

With `Cc1cc(C)nc(N2CCC3(CC2)NCCN(Cc2nn(C)nc2-c2ccc4c(c2)OCCO4)C3=O)n1` [Example 1.80, 4-((5-(2,3-dihydro-benzo[b][1,4]dioxin-6-yl)-2-methyl-2H-1,2,3-triazol-4-yl)methyl)-9-(4,6-dimethylpyrimidin-2-yl)-1,4,9-triazaspiro[5.5] undecan-5-one], the equilibrium dissociation constant (Kd) came out at 860 nM in assay [1] and 27 nM in assay [3]. Further, the results for the Ki in assay [2] and in assay [4] were 4.3 nM and 501 nM, respectively.

On to `COCc1cccc(-c2ocnc2CN2CCNC3(CCN(c4nc(C)cc(C)n4)CC3)C2=O)c1` [Example 1.27, 9-(4,6-Dimethyl-pyrimidin-2-yl)-4-((5-(3-(methoxymethyl)phenyl)oxazol-4-yl)methyl)-1,4,9-triazaspiro[5.5] undecan-5-one], for which the Kd in assay [1] came to 5140 nM; in assay [3] it was 140 nM. In assay [2], the inhibition constant Ki was 94 nM. The inhibition at 10 µM in assay [4] is 34%.

With `COc1cc(C)nc(N2CCC3(CCCN(Cc4c[nH]c5ccccc45)C3=O)C2)n1` (stereo not shown) [Example 7.1, 7-((1H-Indol-3-yl)methyl)-2-(4-methoxy-6-methylpyrimidin-2-yl)-2,7-diazaspiro[4.5]decan-6-one], the Kd in assay [1] worked out at 14 nM; in assay [3], 13 nM. Also, the Ki stood at 10 nM in assay [2] and 31 nM in assay [4].

For `COCc1cccc(-c2ocnc2CN2CCNC3(CCN(c4nc(C)cc(OC)n4)CC3)C2=O)c1` [Example 1.29, 9-(4-Methoxy-6-methylpyrimidin-2-yl)-4-((5-(3-(methoxymethyl)phenyl)oxazol-4-yl)methyl)-1,4,9-triazaspiro[5.5] undecan-5-one], the Kd in assay [1] was 1320 nM; in assay [3], 100 nM. Besides, the Ki worked out at 75 nM in assay [2] and 1430 nM in assay [4].

For `COc1cc(C)nc(N2CCC3(CCN(Cc4nn(C)nc4-c4ccccc4)C3=O)C2)n1` (stereo not shown) [Example 5.43, 7-(4-methoxy-6-methylpyrimidin-2-yl)-2-((2-methyl-5-phenyl-2H-1,2,3-triazol-4-yl)methyl)-2,7-diazaspiro[4.4]nonan-1-one], the Kd in assay [1] turned out to be 339 nM; in assay [3] it was 118 nM. In addition, the figures for the inhibition constant (Ki) in assay [2] and in assay [4] were 29 nM and 421 nM, respectively.

For `Cc1cc(C)nc(N2CCC3(CC2)NCCN(Cc2nn(C)nc2-c2cccc(OC(C)C)c2)C3=O)n1` [Example 1.79, 9-(4,6-dimethyl-pyrimidin-2-yl)-4-((5-(3-isopropoxy-phenyl)-2-methyl-2H-1,2,3-triazol-4-yl)methyl)-1,4,9-triazaspiro[5.5] undecan-5-one], the Kd in assay [1] worked out at 535 nM; in assay [3], 22 nM. Besides, the inhibitory constant (Ki) stood at 3.7 nM in assay [2] and 166 nM in assay [4].

As to `COc1cccc(-c2ocnc2CN2CCNC3(CCN(c4nc(C)cc(C)n4)CC3)C2=O)c1` [Example 1.9, 9-(4,6-Dimethylpyrimidin-2-yl)-4-((5-(3-methoxyphenyl)oxazol-4-yl)methyl)-1,4,9-triazaspiro[5.5] undecan-5-one], the Kd was 397 nM in assay [1] and 25 nM in assay [3]. Moreover, the inhibition constant Ki in assay [2] worked out at 4 nM; in assay [4], 230 nM.

Turning to `COc1cccc(-c2ocnc2CN2CCNC3(CCN(c4nccc(OC)n4)CC3)C2=O)c1` [Example 1.12, 4-((5-(3-Methoxyphenyl)oxazol-4-yl)methyl)-9-(4-methoxy-pyrimidin-2-yl)-1,4,9-triazaspiro[5.5] undecan-5-one], the dissociation constant Kd came out at 686 nM in assay [1] and 230 nM in assay [3]. Moreover, the Ki in assay [2] is 65 nM; in assay [4] it was 621 nM.

With `Cc1ccc(C)c(CN2C(=O)COCC23CCN(c2nc(C)cc(C)n2)CC3)c1` [Example 8.15, 1-(2,5-Dimethylbenzyl)-9-(4,6-dimethylpyrimidin-2-yl)-4-oxa-1,9-diazaspiro[5.5]undecan-2-one], the Kd in assay [1] is over 10000 nM; in assay [3], 165 nM. Also, the Ki in assay [2] came to 28 nM. Besides, the inhibition at 10 µM in assay [4] was 15%.

As for `O=C1OCC2(CCN(c3cnc4ccccc4n3)CC2)N1Cc1cccc2[nH]ccc12` [Example 8.22, 1-((1H-Indol-4-yl)methyl)-8-(quinoxalin-2-yl)-3-oxa-1,8-diazaspiro[4.5]decan-2-one], the Kd was 986 nM in assay [1] and 290 nM in assay [3]. Moreover, the inhibition constant Ki is 38 nM in assay [2] and 645 nM in assay [4].

In the case of `COc1cccc(-c2nn(C)nc2CN2CCNC3(CCN(c4nc(C)cc(C)n4)CC3)C2=O)c1` [Example 1.5, 9-(4,6-Dimethylpyrimidin-2-yl)-4-((5-(3-methoxyphenyl)-2-methyl-2H-1,2,3-triazol-4-yl)methyl)-1,4,9-triazaspiro[5.5] undecan-5-one], the Kd is 928 nM in assay [1] and 31 nM in assay [3]. The results for the inhibitory constant (Ki) in assay [2] and in assay [4] were 7 nM and 1490 nM, respectively.

With `COc1cc(-c2nn(C)nc2CN2CCNC3(CCN(c4nc(C)cc(C)n4)CC3)C2=O)ccn1` [Example 1.74, 9-(4,6-dimethyl-pyrimidin-2-yl)-4-((5-(2-methoxy-pyridin-4-yl)-2-methyl-2H-1,2,3-triazol-4-yl)methyl)-1,4,9-triazaspiro[5.5] undecan-5-one], the Kd in assay [1] was found to be 2500 nM; in assay [3] it was 127 nM. For the same compound, the figures for the Ki in assay [2] and in assay [4] were 48 nM and 4270 nM, respectively.

Regarding `Cc1cc(C)nc(N2CCC3(CC2)NCCN(Cc2nn(C)cc2-c2cccc(OCCOC(C)C)c2)C3=O)n1` [Example 1.72, 9-(4,6-dimethyl-pyrimidin-2-yl)-4-((4-(3-(2-iso-propoxyethoxy)phenyl)-1-methyl-1H-pyrazol-3-yl)methyl)-1,4,9-triazaspiro[5.5] undecan-5-one], the dissociation constant Kd in assay [1] is 846 nM; in assay [3], 203 nM. Also, the Ki in assay [2] was determined as 49 nM; in assay [4], 1590 nM.

Regarding `COc1cc(C)nc(N2CCC3(CCN(Cc4ccccc4-c4nc(C)no4)C3=O)CC2)n1` [Example 3.20, 8-(4-Methoxy-6-methyl-pyrimidin-2-yl)-2-[2-(3-methyl-[1,2,4]oxadiazol-5-yl)-benzyl]-2,8-diaza-spiro[4.5]decan-1-one], the equilibrium dissociation constant (Kd) in assay [1] is 7670 nM; in assay [3], 328 nM. Moreover, the values for the Ki in assay [2] and in assay [4] were 43 nM and 1640 nM, respectively.

Turning to `COc1cc(C)nc(N2CC[C@]3(CCCN(Cc4c[nH]c5ccccc45)C3=O)C2)n1` (single isomer, unassigned) [Example 7.9], the Kd in assay [1] and in assay [3] was 12 nM in each case. Also, the Ki worked out at 1.9 nM in assay [2] and 10 nM in assay [4].

`Cc1cc(C)nc(N2CCC3(CCC(=O)N3Cc3cccc4[nH]ccc34)CC2)n1` [Example 8.3, 1-((1H-Indol-4-yl)methyl)-8-(4,6-dimethylpyrimidin-2-yl)-1,8-diazaspiro[4.5]decan-2-one]: the dissociation constant (Kd) in assay [1] is 2380 nM; in assay [3] it was 30 nM. The Ki was 2.3 nM in assay [2] and 1210 nM in assay [4].

By Kd is commonly meant the free concentration of one partner at which half of the binding sites on the other are occupied at equilibrium, for simple one-to-one binding. The Ki is a dissociation constant, usually derived from enzyme kinetics or from competition with a known ligand. For orientation: inhibition means the share of the control response that was lost under treatment.
